Laboratory results as given in patent publication US9517237B2, “Compounds and methods for treating multiple sclerosis” (NEURO VIGOR, LLC, priority 2010, dated 2016).

Columns and labels:
EAE mice = system: EAE mice
Procedure: Animals. C57BL/6 female mice (8 weeks old) were purchased from Harlan Laboratories and were maintained in the lab animal housing facilities. These studies were performed in compliance with the Purdue Animal Care and Use Committee protocol guidelines at Purdue University, West Lafayette, Ind.
Induction of EAE. Nine-twelve week old mice were subcutaneously injected with 0.1 mL MOG35-55/CFA emulsion (EK-0115, Hooke Laboratories) in the neck and lower back (total of 0.2 mL). Within two hours of the injection, 0.1 mL pertussis toxin (EK-0115, Hooke Laboratories) was administered intraperitoneally. A second dose of pertussis toxin of the same volume was given 22-26 hours later. The behavioral performance was assessed using a well established 5-point behavioral scoring system (Kalyvas and David, 2004). The animals were placed on a metal grate and their walking ability was recorded. The scoring system is as follows: 0—no deficit; 1—limp tail only; 2—hind limb paresis but without leg dragging; 3—partial hind limb weakness with one or both legs dragging; 4—complete hind limb paralysis; 5—moribund, paralysis in hind limbs and possibly in one forelimb. The animals were monitored and assessed three times during the first week and then assessed daily for the remainder of the study.
(§1) Hydralazine Treatment. A solution of hydralazine hydrochloride (Sigma) was prepared with phosphate buffered saline. The solution was then sterilized through a filter and stored at 4° C. Hydralazine (1 mg/kg) was administered through daily with intraperitoneal injections from the day the MOG/CFA emulsion was administered until the end of the 30 day study period. For sham treatments, mice were administered saline intraperitoneally rather than the hydralazine solution. Blood pressures were monitored using a CODA 2 system (Kent Scientific Corp.).
(§2) One group of EAE mice are injected with hydralazine (EAE+HZ) at the dose of 1 mg/kg daily starting from the day of induction (n=11). In the sham-treated group (EAE), an equal amount of saline is injected daily (n=12). Both hydralazine and saline (sham) treatments are carried out for 30 days post induction. The behavioral scores of the two groups of mice are recorded daily (FIG. 2 panel A).
Phenelzine is administered via intraperitoneal (IP) injections at 15 mg/kg for 30 days. […] The highest score for each mouse was taken and averaged within each group. All data are expressed as mean±SEM.

EAE mice spinal cord = conditions: thoracic spinal cord cross section, n=3, sham treated 25.58±3.8%
Procedure: Mice were perfusion fixed with 4% paraformaldehyde and the vertebral columns were removed and fixed in 4% paraformaldehyde overnight. Spinal cord tissues were extracted out of the vertebral column, cut into 1 cm pieces, and further fixed in 4% paraformaldhyde for 24-48 hours. The samples were cryoprotected by incubating for 24 h in a 10% sucrose solution, followed by 24 hours in a 20% sucrose solution. The samples were then imbedded in Tissue-Tek OCT compound (VWR, Batavia, Ill.) and frozen in liquid nitrogen. 15 μm sections were cut using a cryostat and mounted on gelatin coated slides. Sections were incubated with 5% goat serum and 0.5% Triton-X100 in phosphate buffered saline (PBS) for 30 minutes as blocking agents. […] All sections were observed by fluorescence microscopy.
For quantification, the thoracic sections were imaged, and Adobe Photoshop was used to outline the demyelination area and total white matter area. Pixel area for each sample was calculated and the percentage of demyelination was obtained by dividing the total demyelinated area by total white matter area. […] For each of the 3 groups, (control, EAE, EAE+HZ), 3 animals were used for immunofluorescence quantification.
Total white matter area and lesion areas are manually outlined and the pixel area is calculated. Percent demyelination is calculated by dividing total demyelinated area by total white matter area.

[1] = mouse, in vivo
Procedure: as §1, §2

acrolein-lysine adducts = conditions: EAE mice treated with hydralazine, n=3, mean±SEM; EAE 20.27±3.0, control 12.30±1.3
Procedure: Acrolein-lysine adducts in the tissue homogenate was measured using a Bio-Dot SF Microfiltration Apparatus (Bio-Rad, Hercules, Calif., USA), as previously described (Luo et al., 2005a; Shao et al., 2006; Hamann et al., 2008a). Briefly, the tissue was homogenized with TritonX-100 (3%), and the following anti-proteases were added: 2 mmol/L pefabloc, 15 lmol/L pepstatin A, 20 µg/mL aprotinin, and 25 µg/mL leupeptin. The solution was centrifuged to pellet large pieces of tissue and the supernatant was stored at −80° C. until transferred to a nitrocellulose membrane. The membrane was blocked for 1 h in blocking buffer (0.2% casein and 0.1% Tween 20 in PBS) and transferred to 1:1000 polyclonal rabbit anti-acrolein (in blocking buffer with 2% goat serum and 0.025% sodium azide) (Novus Biologicals) for 18 h at 4° C. Next, the membrane was washed in blocking buffer and then transferred to 1:10000 alkaline phosphatase conjugated goat anti-rabbit IgG. […]
The optical density of bands was evaluated using Image J (NIH) and statistical comparison was performed with SAS 9.2 (SAS institute). […]
The acrolein-lysine adducts in control (n=3), EAE mice (n=3) and EAE+HZ mice (n=3) spinal cord are detected using Bio-Dot SF Microfiltration Apparatus. […] Band intensities are analyzed using ImageJ (NIH) and are expressed in arbitrary units. […] All data are expressed as mean±SEM.

SMILES	average onset of symptoms (EAE mice; 1 mg/kg daily i.p. from day of induction, n=11, mean±SEM, sham 15.42±0.4)	average behavioral score (highest score for each mouse averaged within group) (EAE mice; 5-point scale, 1 mg/kg daily i.p. from day of induction, mean±SEM, EAE group 3.33±0.3)	percent demyelination in white matter (EAE mice spinal cord)	average systolic pressure of EAE mice [1]	average systolic pressure of normal mice [1]	acrolein-lysine adduct level in EAE mice spinal cord (acrolein-lysine adducts)	behavioral scores evaluated daily (EAE mice; 5-point scale, phenelzine IP 15 mg/kg for 30 days, vs sham)	mean behavioral scores (highest score for each mouse averaged) (EAE mice; phenelzine IP 15 mg/kg for 30 days, vs EAE, p<0.005)	time to EAE symptom onset (EAE mice; phenelzine IP 15 mg/kg for 30 days, vs sham, p<0.005)
NNc1nncc2ccccc12 [hydralazine]	21.73±2.1 days post induction	1.72±0.4	5.10±4.2%	134.8±4.5 mmHg	118.5±6.4 mmHg	15.14±1.6 a.u.			
NNCCc1ccccc1 [phenelzine]							significant differences for all comparisons following day 14	mean behavioral scores are significantly increased in EAE mice compared to the phenelzine treated (EAE+PLZ) group	significant delay in disease progression
